Holding throughout (assay type): biochemical
The target in one test is T1, human cathepsin S (Homo sapiens, UniProt P25774).
T1 construct: made in house; host or cells: baculovirus expression system
The experiment in a line: Cathepsin S Ki determination. The settings on record: baculovirus-expressed human cathepsin S, boc-Val-Leu-Lys-AMC substrate, pH 6.5; read-out: Ki Cat. S. Here is the method: The assay uses baculovirus-expressed human cathepsin S and the boc-Val-Leu-Lys-AMC fluorescent substrate available from Bachem in a 384 well plate format, in which 7 test compounds can be tested in parallel with a positive control comprising a known cathepsin S inhibitor comparator.
280 μL/well of 12.5% DMSO are added to rows B-H of two columns of a 96 deep well polypropylene plate. 70 μL/well of substrate is added to row A. 2×250 μL/well of assay buffer (100 mM Na phosphate, 100 mM NaCl, pH 6.5) is added to row A, mixed, and double diluted down the plate to row H.
100 μL/well of assay buffer is added to columns 2-5 and 7-12 of 4 rows of a 96 well V bottom polypropylene plate. 200 μL/well of assay buffer is added to columns 1 and 6.
The first test compound prepared in DMSO is added to column 1 of the top row, typically at a volume to provide between 10 and 30 times the initially determined rough K1. The rough K, is calculated from a preliminary run in which 10 μL/well of 1 mM boc-VLK-AMC (1/10 dilution of 10 mM stock in DMSO diluted into assay buffer) is dispensed to rows B to H and 20 μl/well to row A of a 96 well Microfluor™ plate. 2 μl of each 10 mM test compound is added to a separate well on row A, columns 1-10. Add 90 μl assay buffer containing 1 mM DTT and 2 nM cathepsin S to each well of rows B-H and 180 μl to row A. Mix row A using a multichannel pipette and double dilute to row G. Mix row H and read in the fluorescent spectrophotometer.
The second test compound is added to column 6 of the top row, the third to column 1 of the second row etc. Add 1 μL of comparator to column 6 of the bottom row. Mix column 1 and double dilute to column 5. Mix column 6 and double dilute to column 10.
Using an 8-channel multistepping pipette set to 5×10 μL, distribute 10 μL/well of substrate to the 384 well assay plate. Distribute the first column of the substrate dilution plate to all columns of the assay plate starting at row A. The tip spacing of the multichannel pipette will correctly skip alternate rows. Distribute the second column to all columns starting at row B.
Using a 12-channel multistepping pipette set to 4×10 μL, distribute 10 μL/well of inhibitor to the 384 well assay plate. Distribute the first row of the inhibitor dilution plate to alternate rows of the assay plate starting at A1. The tip spacing of the multichannel pipette will correctly skip alternate columns. Similarly, distribute the second, third and fourth rows to alternate rows and columns starting at A2, B1 and B2 respectively.
Mix 20 mL assay buffer and 20 μL 1M DTT. Add sufficient cathepsin S to give 2 nM final concentration.
Using the a distributor such as a Multidrop 384, add 30 μL/well to all wells of the assay plate and read in fluorescent spectrophotometer such as an Ascent.
Fluorescent readings, (excitation and emission wavelengths 390 nm and 460 nm respectively, set using bandpass filters) reflecting the extent of enzyme cleavage of the fluorescent substrate, […] the inhibitor, are linear rate fitted for each well.
Fitted rates for all wells for each inhibitor are fitted to the competitive inhibition equation using SigmaPlot 2000 to determine V, Km and Ki values.
(§1) Potential inhibitors are screened using the above assay with variable concentrations of test compound. Reactions were initiated by addition of enzyme to buffered solutions of substrate and inhibitor. Ki values were calculated according to equation 1.
(§2) [formula] where v0 is the velocity of the reaction, V is the maximal velocity, S is the concentration of substrate with Michaelis constant of KM, and I is the concentration of inhibitor.

The target of another test is T2, cathepsin K (Homo sapiens, UniProt P43235).
T2 construct: made in house; host or cells: not fixed: E. coli, Pichia or Baculovirus systems are named as options
T2 sequence (P43235 115-329): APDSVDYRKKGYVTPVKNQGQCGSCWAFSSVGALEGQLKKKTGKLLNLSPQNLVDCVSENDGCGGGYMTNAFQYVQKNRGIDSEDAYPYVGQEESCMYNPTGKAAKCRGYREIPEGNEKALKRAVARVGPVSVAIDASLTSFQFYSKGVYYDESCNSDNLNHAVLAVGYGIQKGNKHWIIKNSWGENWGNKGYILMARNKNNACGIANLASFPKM
The test is described as follows: Determination of cathepsin K proteolytic catalytic activity (Ki). The settings on record: human recombinant enzyme, H-D-Ala-Leu-Lys-AMC substrate; read-out: Ki Cat. K. On the procedure: Convenient assays for cathepsin K are carried out using human recombinant enzyme, such as that described in PDB.
The recombinant cathepsin K can be expressed in a variety of commercially available expression systems including E. coli, Pichia and Baculovirus systems. The purified enzyme is activated by removal of the prosequence by conventional methods.
Standard assay conditions for the determination of kinetic constants used a fluorogenic peptide substrate, typically H-D-Ala-Leu-Lys-AMC, and were determined in either 100 mM Mes/Tris, pH 7.0 containing 1 mM EDTA and 10 mM 2-mercaptoethanol or 100 mM Na phosphate, imM EDTA, 0.1% PEG4000 pH 6.5 or 100 mM Na acetate, pH 5.5 containing 5 mM EDTA and 20 mM cysteine, in each case optionally with […] as stabiliser. The enzyme concentration used was 5 nM. The stock substrate solution was prepared at 10 mM in DMSO. Screens were carried out at a fixed substrate concentration of 60 μM and detailed kinetic studies with doubling dilutions of substrate from 250 μM. The total DMSO concentration in the assay was kept below 3%. All assays were conducted at ambient temperature. Product fluorescence (excitation at 390 nm, emission at 460 nm) was monitored with a Labsystems Fluoroskan Ascent fluorescent plate reader. Product progress curves were generated over 15 minutes following generation of AMC product.
as §1, §2

The target in the next test is human cathepsin L (Homo sapiens, UniProt P07711). The experiment in a line: Cathepsin L Ki. The settings on record: H-D-Val-Leu-Lys-AMC substrate, pH 5.5, read-out: Ki Cat. L. Here is the method: The procedure above with the following amendments is used for the determination of Ki for cathepsin L.
human cathepsin L, sequence (P07711 114-333): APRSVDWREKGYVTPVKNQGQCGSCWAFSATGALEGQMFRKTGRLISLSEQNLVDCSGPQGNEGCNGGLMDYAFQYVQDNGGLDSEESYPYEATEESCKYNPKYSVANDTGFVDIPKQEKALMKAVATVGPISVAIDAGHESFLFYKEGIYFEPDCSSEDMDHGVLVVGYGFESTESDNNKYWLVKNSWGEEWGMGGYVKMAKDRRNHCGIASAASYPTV
The enzyme is commercially available human cathepsin L (for example Calbiochem). The substrate is H-D-Val-Leu-Lys-AMC available from Bahcem. The assay buffer is 100 mM sodium acetate 1 mM EDTA, pH5.5) The DMSO stock (10 mM in 100% DMSO) is diluted to 10% in assay buffer. Enzyme is prepared at 5 nM concentration in assay buffer plus 1 mM dithiothreitol just before use. 2 μL of 10 mM inhibitor made up in 100% DMSO is dispensed into row A. 10 μL of 50 μM substrate (=1/200 dilution of 10 mM stock in DMSO, diluted in assay buffer).
as §1, §2

T1 sequence (P25774 115-331): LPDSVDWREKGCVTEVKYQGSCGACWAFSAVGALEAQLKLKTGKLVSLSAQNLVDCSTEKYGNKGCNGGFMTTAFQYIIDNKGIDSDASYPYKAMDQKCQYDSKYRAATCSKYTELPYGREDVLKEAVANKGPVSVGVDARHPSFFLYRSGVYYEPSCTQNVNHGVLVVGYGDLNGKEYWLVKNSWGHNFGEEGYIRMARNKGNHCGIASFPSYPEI

For orientation: Ki means a measure of affinity in units of concentration, obtained from inhibition or displacement. Regarding `COC1CC(NC(=O)[C@H](CC2(F)CCCC2)NC(=O)OC(C)(C)C)(C(=O)C(=O)Nc2ccn(C)n2)C1` (single isomer, unassigned) [Example 73, {2-(1-Fluoro-cyclopentyl)-1-[3-methoxy-1-(1-methyl-1H-pyrazol-3-ylaminooxalyl)-cyclobutylcarbamoyl]-ethyl}-carbamic acid tert-butyl ester], the results for the Ki at human cathepsin S, at cathepsin K and at human cathepsin L were 0.8 nM, 250 nM and 1100 nM, respectively.

Take `COC(=O)N[C@@H](CC1(C)CCCC1)C(=O)N[C@]1(C(=O)C(=O)Nc2ccn(C)n2)C[C@@H](F)C1` [Example 1]: the Ki came out at 3.6 nM on human cathepsin S, 1100 nM at cathepsin K and 4800 nM on human cathepsin L.

On to `CCOC(=O)NC(CC(C)(C)C)C(=O)NC1(C(=O)C(=O)Nc2ccn(C)n2)CC(F)C1` (stereo not drawn) [Example 4], for which the Ki at human cathepsin S was 11 nM; at cathepsin K, 430 nM; at human cathepsin L, 3300 nM.

`CCOC(=O)NC(CC1(C)CCCC1)C(=O)NC1(C(=O)C(=O)Nc2ccn(C)n2)CC(F)C1` (stereo not drawn) [Example 8]: the Ki was 1 nM on human cathepsin S, 1200 nM on cathepsin K and 3300 nM at human cathepsin L.

With `Cn1ccc(NC(=O)C(=O)C2(NC(=O)[C@H](CC3(F)CCCC3)NC(=O)OC(C)(C)C)CC(F)(F)C2)n1` [Example 10], the figures for the Ki at human cathepsin S, on cathepsin K and on human cathepsin L were 0.55 nM, 170 nM and 360 nM, respectively.

Turning to `Cn1cnc(NC(=O)C(=O)C2(NC(=O)[C@H](CC3(C)CCCC3)NC(=O)OC(C)(C)C)CCC2)c1` [Example 11], the Ki turned out to be 1 nM on human cathepsin S, 610 nM on cathepsin K and 1100 nM on human cathepsin L.

Regarding `Cn1ccc(NC(=O)C(=O)C2(NC(=O)C(CC3(C)CCC3)NC(=O)OC(C)(C)C)CC(F)C2)n1` (stereo not drawn) [Example 19], the Ki at human cathepsin S was 4.7 nM; at cathepsin K, 150 nM; on human cathepsin L it was 330 nM.

For the molecule `Cc1csc(NC(=O)C(=O)C2(NC(=O)[C@H](CC3(C)CCCC3)NC(=O)OC(C)(C)C)CCC2)n1` [Example 20], the inhibition constant Ki was 30 nM on human cathepsin S, 95000 nM at cathepsin K and greater than 200000 nM at human cathepsin L.

Turning to `CC(C)(C)OC(=O)N[C@@H](CC1(F)CCCC1)C(=O)NC1(C(=O)C(=O)NC2CC2)CC(F)C1` (stereo partly drawn) [Example 22], the inhibition constant Ki at human cathepsin S amounted to 14 nM; on cathepsin K it was 3800 nM; on human cathepsin L, 25000 nM.

As for `CC1(C[C@H](NC(=O)OC(C)(C)C)C(=O)NC2(C(=O)C(=O)NC3CC3)CCC2)CCCC1` [Example 24], the Ki came to 7.8 nM at human cathepsin S, 4400 nM on cathepsin K and 10000 nM on human cathepsin L.

For `CC(C)OC(=O)NC(CC1(F)CCCC1)C(=O)NC1(C(=O)C(=O)Nc2ccn(C)n2)CC(F)C1` (stereo not drawn) [Example 31], the Ki on human cathepsin S turned out to be 1.8 nM; at cathepsin K, 410 nM; on human cathepsin L it was 1200 nM.

In the case of `Cn1ccc(NC(=O)C(=O)C2(NC(=O)C(CC3CCCC3)NC(=O)OC(C)(C)C)CC(F)C2)n1` (stereo not drawn) [Example 45], the Ki worked out at 6 nM on human cathepsin S, 1100 nM at cathepsin K and 850 nM at human cathepsin L.

With `COC1CC(NC(=O)[C@H](CC2(F)CCCC2)NC(=O)OC(C)(C)C)(C(=O)C(=O)Nc2ccn(C)n2)C1` (stereo partly drawn) [Example 49], the Ki was determined as 0.65 nM on human cathepsin S, 240 nM at cathepsin K and 660 nM on human cathepsin L.

As for `[2H]C([2H])([2H])n1ccc(NC(=O)C(=O)C2(NC(=O)C(CC3(F)CCCC3)NC(=O)OC(C)(C)C)CC(F)C2)n1` (stereo not drawn) [Example 50], the Ki came to 0.65 nM on human cathepsin S, 100 nM at cathepsin K and 560 nM on human cathepsin L.

On to `Cn1ccc(NC(=O)C(=O)C2(NC(=O)[C@H](CC3(F)CCCC3)NC(=O)OC(C)(C)C)CCC2)n1` [Example 52], for which the results for the Ki on human cathepsin S, on cathepsin K and at human cathepsin L were 0.4 nM, 98 nM and 270 nM, respectively.

For the molecule `CC(CF)OC(=O)NC(CC1(F)CCCC1)C(=O)NC1(C(=O)C(=O)Nc2ccn(C)n2)CCC1` (stereo not drawn) [Example 56, {2-(1-Fluoro-cyclopentyl)-1-[1-(1-methyl-1H-pyrazol-3-ylaminooxalyl)-cyclobutylcarbamoyl]-ethyl}-carbamic acid 2-fluoro-1-methyl-ethyl ester], the figures for the Ki on human cathepsin S, on cathepsin K and on human cathepsin L were 1.8 nM, 440 nM and 990 nM, respectively.

Take `CC(C)(C)OC(=O)N[C@@H](CC1(F)CCCC1)C(=O)NC1(C(=O)C(=O)Nc2cc[nH]n2)CCC1` [Example 57, {2-(1-Fluoro-cyclopentyl)-1-[1-(1H-pyrazol-3-ylaminooxalyl)-cyclobutylcarbamoyl]-ethyl}-carbamic acid tert-butyl ester]: the Ki at human cathepsin S amounted to 0.79 nM; on cathepsin K, 290 nM; on human cathepsin L, 720 nM.

`Cn1ccc(NC(=O)C(=O)C2(NC(=O)[C@H](CC3(F)CCCC3)NC(=O)OC3COC3)CCC2)n1` [Example 59, {2-(1-Fluoro-cyclopentyl)-1-[1-(1-methyl-1H-pyrazol-3-ylaminooxalyl)-cyclobutylcarbamoyl]-ethyl}-carbamic acid oxetan-3-yl ester]: the Ki is 2.2 nM on human cathepsin S, 340 nM at cathepsin K and 2100 nM at human cathepsin L.

Take `CCOC(=O)N[C@@H](CC1(F)CCCC1)C(=O)NC1(C(=O)C(=O)NCCCN2CCN(C)CC2)CCC1` [Example 63]: the Ki at human cathepsin S came to 22 nM; at cathepsin K, 1400 nM; at human cathepsin L, 4900 nM.

Regarding `CCOC(=O)NC(CC1(F)CCCC1)C(=O)NC1(C(=O)C(=O)Nc2ccn(C)n2)CC(OC)C1` (stereo not drawn) [Example 68], the Ki at human cathepsin S was 1.1 nM; at cathepsin K it was 640 nM; on human cathepsin L, 2400 nM.

As to `CCOC(=O)NC(CC1(C)CCCC1)C(=O)NC1(C(=O)C(=O)Nc2ccn(C)n2)CC(OC)C1` (stereo not drawn) [Example 70], the inhibition constant (Ki) at human cathepsin S is 0.7 nM; at cathepsin K it was 1400 nM; at human cathepsin L, 2100 nM.

The values above are taken from US8815809B2, “Cysteine protease inhibitors” (Medivir UK Ltd, priority 2009, dated 2014).
